According to the OligoGym collection:
Oligonucleotides are written 5' to 3', each unit as a sugar letter and its base; * is a phosphorothioate linkage, no mark a phosphodiester; rarer units and linkages stand in square brackets, end groups in braces. Plain capitals give the bases only. d = 2'-deoxy (DNA); r = 2'-OH (RNA)

These substances were tested against UBE2M (assay: reporter assay of Huesken 2005). Settings: siRNA.
Further: test concentration or dose not given here.

Point of comparison: “sense rGrGrUrGrArArGrUrGrUrGrArGrArCrArArUrGdTdT / antisense rCrArUrUrGrUrCrUrCrArCrArCrUrUrCrArCrCdTdT”, normalised inhibition (eCFP-eYFP dual reporter) 81.7%. Against it:
- sense rGrGrGrCrArGrCrArGrCrArArGrArArGrGrCrGdTdT / antisense rCrGrCrCrUrUrCrUrUrGrCrUrGrCrUrGrCrCrCdTdT — lower, 58.9%
- sense rGrGrGrCrCrArGrGrGrUrUrArCrCrCrGrCrArUdTdT / antisense rArUrGrCrGrGrGrUrArArCrCrCrUrGrGrCrCrCdAdC — lower, 79.3%
- sense rGrGrGrCrGrGrCrArCrCrArArGrGrGrCrArGrCdTdT / antisense rGrCrUrGrCrCrCrUrUrGrGrUrGrCrCrGrCrCrCdGdC — lower, 64.9%
- sense rGrGrGrUrGrGrCrUrArCrArUrCrGrGrCrUrCrCdTdT / antisense rGrGrArGrCrCrGrArUrGrUrArGrCrCrArCrCrCdCdG — lower, 58.1%
- sense rGrGrUrCrUrArUrCrArCrCrCrCrArArCrArUrUdTdT / antisense rArArUrGrUrUrGrGrGrGrUrGrArUrArGrArCrCdAdT — lower, 79.7%
- sense rGrUrCrArUrCrUrGrUrCrCrUrGrArUrGrArGrGdTdT / antisense rCrCrUrCrArUrCrArGrGrArCrArGrArUrGrArCdCdA — lower, 58.9%
- sense rGrUrCrCrUrGrArUrGrArGrGrGrCrUrUrCrUrAdTdT / antisense rUrArGrArArGrCrCrCrUrCrArUrCrArGrGrArCdAdG — lower, 80.3%
- sense rGrUrCrCrUrUrArCrGrArUrArArArCrUrCrCrAdTdT / antisense rUrGrGrArGrUrUrUrArUrCrGrUrArArGrGrArCdTdG — lower, 76.7%
- sense rGrUrGrArUrArUrCrArGrCrUrUrCrUrCrArGrAdTdT / antisense rUrCrUrGrArGrArArGrCrUrGrArUrArUrCrArCdAdC — lower, 70.3%
- sense rGrUrGrGrGrCrCrArGrGrGrUrUrArCrCrCrGrCdTdT / antisense rGrCrGrGrGrUrArArCrCrCrUrGrGrCrCrCrArCdCdT — lower, 56.4%
- sense rGrUrUrCrArGrUrUrUrUrArArGrGrUrGrGrGrCdTdT / antisense rGrCrCrCrArCrCrUrUrArArArArCrUrGrArArCdAdC — lower, 53.9%
- sense rUrArArGrGrUrGrGrGrCrCrArGrGrGrUrUrArCdTdT / antisense rGrUrArArCrCrCrUrGrGrCrCrCrArCrCrUrUrAdAdA — lower, 69.9%
- sense rUrArArUrUrUrArUrGrGrCrCrUrGrCrArGrUrAdTdT / antisense rUrArCrUrGrCrArGrGrCrCrArUrArArArUrUrAdTdG — lower, 67%
- sense rUrCrArCrCrCrCrArArCrArUrUrGrArCrCrUrCdTdT / antisense rGrArGrGrUrCrArArUrGrUrUrGrGrGrGrUrGrAdTdA — lower, 65.4%
- sense rUrCrArUrCrUrGrUrCrCrUrGrArUrGrArGrGrGdTdT / antisense rCrCrCrUrCrArUrCrArGrGrArCrArGrArUrGrAdCdC — lower, 57.5%
- sense rUrCrUrCrUrUrCrUrUrGrGrArGrCrCrCrArArCdTdT / antisense rGrUrUrGrGrGrCrUrCrCrArArGrArArGrArGrAdTdA — lower, 69.7%
- sense rUrCrUrUrCrUrUrGrGrArGrCrCrCrArArCrCrCdTdT / antisense rGrGrGrUrUrGrGrGrCrUrCrCrArArGrArArGrAdGdA — lower, 56.1%
- sense rUrGrArArCrArArGrGrArGrGrCrCrGrCrArGrAdTdT / antisense rUrCrUrGrCrGrGrCrCrUrCrCrUrUrGrUrUrCrAdGdT — lower, 65.9%
- sense rUrGrCrArGrArArCrArArCrCrGrGrCrGrGrCrUdTdT / antisense rArGrCrCrGrCrCrGrGrUrUrGrUrUrCrUrGrCrAdGdG — lower, 67.6%
